# Assay results reported in article PMC7719179, “Small molecule inhibition of Dynamin-dependent endocytosis targets multiple niche signals and impairs leukemia stem cells” (Nature Communications, 2020).
# Where “and” joins values, the source holds several entries; their conditions need not be identical. Equal entries are not always repeated. Where two headings read alike, the source gives them in different places.
# How the values were obtained:
# [1] = in vitro; settings: mouse, Relative % viable cells
# Procedure: Pre-leukemic and leukemic thymocytes were purified by flow cytometry and co-cultured on GFP-positive OP9 and OP9-DL1 stromal cell lines, as described previously. Thymocytes were co-cultured in reconstituted alpha-MEM medium (#12318, Gibco, Grand Island NY, USA) supplemented with 20% FCS (#12318), HEPES 10 mM (#15630-080), sodium pyruvate 1 mM (#11360-070), β-mercaptoethanol 55 μM (#21985-023), Glutamax 2 mM (#15750-060), 1% Penicillin/Streptomycin (#15140-122), 5 ng/mL rmFLT-3 ligand (#250-31 L, Pepro Tech), 5 ng/mL rmIL-7 (#217-17, Pepro Tech) and 25 ng/mL rmSCF (#250-03, Pepro Tech). After 48 h of co-culture, thymocytes were counted and analysed by FACS. […]
# viability of wild-type (WT), Lmo2 Tg, Lmo2Tg;STAT5-CA Tg and Lmo2Tg;N1-ICD Tg DN3a thymocytes […]
# normalized to cells treated with vehicle (%DMSO). Mean ± SEM of n=4 biological replicates. b, […]
# thymocytes from 6-week old wild-type (WT), Lmo2 Tg, Lmo2Tg;STAT5-CATg and Lmo2Tg ;N1-ICD Tg mice. Mean ± SD of n=4 biological replicates are shown. 2-way ANOVA with Tukey’s correction test; […]
# (1 picture or pasted object on this page, not shown here)
# *P<0.05, *** P<0.001 compared to WT; #P<0.05, ##P<0.01, ###P<0.001 compared to L mo2Tg. c, Levels of pStat5 (left) after stimulation with IL-7 , as well as Hes1 expression (right) after co-culture on OP9- […]
# (0.2 µM), Ruxolitinib (0.2 µM) and DAPT (0.1 µM). Unstimulated cells were used as negative controls (dashed line). Student’s t -test, ** P<0.01, *** P<0.001 compared to unstimulated cells. MFI ± SEM, 1-way ANOVA with Tukey’s correction test; **P<0.01, *** P<0.001 compared to vehicle. d, Clonogenic assay of normal murine hematopoietic stem and progenitor cells (HSPCs) cultured in the presence […]
# ± SD, Student’s t -test ( n=4) **P<0.01 compared to vehicle. e, Relative viability of wild-type (WT), […]
# 2 (0.2 µM), Ruxolitinib (0.2 µM) and DAPT (0.1 µM) for 48 hours. Viability was normalized to cells treated with vehicle (%DMSO, which was reported as 100). Mean ± SEM, 2-way ANOVA with Tukey’s correction test, **P<0.01, *** P<0.001 compared to vehicle.
# [2] = test system: self-renewing pre-LSCs in Mx;YFP;Lmo2^Tg mice; assay: Intrathymic competition assay in Mx;YFP;Lmo2^Tg mice (%YFP+ DN3a thymocytes, BM); assay type: in vivo, mouse
# Source text: To exclude this possibility, we used a cell-marking strategy that enables detection of pre-LSCs in the absence of transplantation. In this assay, treatment of Mx1-Cre transgenic Rosa26-YFP (Mx;YFP) reporter mice with polyinosinic-polycytidylic acid (poly (I : C)) induces yellow fluorescent protein (YFP) expression in hematopoietic stem cells (HSCs)[10] (Supplementary Fig. 4e). In WT Mx;YFP mice, normal turnover of the thymus by HSCs leads to the generation of YFP-labelled DN3a cells over a 3-week period. However, in Mx;YFP;Lmo2^Tg mice, the presence of self-renewing pre-LSCs prevents YFP-labelled HSCs to replenish the thymus[10] and, thus, Lmo2^Tg DN3a thymocytes remain YFP negative. Therefore, we reasoned that therapies targeting pre-LSC self-renewal would allow migration of YFP^+ HSCs with the generation of YFP-labelled thymocytes.
# [3] = test system: leukemogenicity of pre-LSCs; assay: Time to leukemia of recipients injected with thymocytes from treated Lmo2^Tg mice; assay type: in vivo, mouse; settings: for Time to leukemia / Time to leukemia (days): * non-leukemic at endpoint
# Procedure: Fold expansion was calculated by dividing the absolute output number of donor-derived DN3a cells harvested at the experimental endpoint by the respective number of DN3a thymocytes injected in each recipient. […] Leukemia-propagating cell frequency was calculated by applying Poisson statistics using the ELDA: Extreme Limiting Dilution Analysis software (Walter and Eliza Hall Institute Bioinformatics, Parkville VIC, Australia)[96]. Limiting dilution transplantations were performed independently from any other transplantation assays, using thymocytes from three different Lmo2^Tg mice for each cohort. […] Log-rank (Mantel -Cox)
# [4] = test system: primary Lmo2^Tg T-ALL; assay: Relative viability and LC50 on primary Lmo2^Tg leukemias, 48 h; assay type: cell-based, mouse; parameters: Relative % viable cells: unit of the concentration uncertain; settings: for viability at 200 µM / viability at 40 µM: Mus musculus
# Procedure: Supplementary Figure 6 . Efficacy of Dynole 34-2 on primary Lmo2-transgenic T-ALL. a, Relative viability (%) of primary Lmo2Tg leukemias treated with increasing concentration of Dynole 34-2 for 48 hours. Viability was normalized to vehicle-treated cells with experiments performed in duplicates or triplicates. […]
# concentration (LC50) of Dynole 34-2 for each primary L mo2Tg T-ALL are indicated (right panel). […]
compound,measurement,setting,value
N#CC[C@H](C1CCCC1)n1cc(-c2ncnc3[nH]ccc23)cn1 [Ruxolitinib],"viability at 48 h, 0.04 mM",[1],83.2%
same,"viability at 48 h, 0.2 mM",[1],39.6%
"CCCCCCCCNC(=O)C(C#N)=Cc1cn(CCCN(C)C)c2ccccc12 [Dynole 34-2, 2-Cyano-N-octyl-3-(1-(3-dimethylaminopropyl)-1H-indol-3-yl)-acrylamide]",% YFP+ cells in DN3a population,"[2]; Mx, YFP, Lmo2Tg mice, individual mice",70.1% and 38.6% and 29.3%
same,YFP-labelled DN3a thymocytes,"[2]; Mx;YFP;Lmo2^Tg mice, vehicle 10%",46%
same,% YFP+ cells in bone marrow,"[2]; genotype Mx, YFP, Lmo2Tg",99% and 98.9%
same,Time to leukemia,[3]; Supplementary Figure 3h,138 days and 132 days and 116 days and 149 days
same,Time to leukemia (days),[3]; Supplementary Figure 3h,> 210* days
same,Time to leukemia,[3]; Supplementary Figure 4d,170 days and 151 days and 119 days and 142 days
same,Time to leukemia (days),[3]; Supplementary Figure 4d,> 210* days
same,leukemogenic potential of pre-LSCs / progression to leukemia in recipients,"[3]; recipients of thymocytes from treated Lmo2^Tg mice, result in words",delayed progression to leukemia
same,viability at 200 µM,"[4]; read-out: Relative % viable cells, T-ALL 249, dose 0.2 mM",94.3%
same,viability at 40 µM,"[4]; read-out: Relative % viable cells, T-ALL 257, dose 0.04 mM",92.3%
same,viability at 200 µM,"[4]; read-out: Relative % viable cells, T-ALL 257, dose 0.2 mM",76.4%
same,viability at 200 µM,"[4]; read-out: Relative % viable cells, T-ALL 273, dose 0.2 mM",96.1%
same,viability at 200 µM,"[4]; read-out: Relative % viable cells, T-ALL 582, dose 0.2 mM",97.6%
same,viability at 40 µM,"[4]; read-out: Relative % viable cells, T-ALL 588, dose 0.04 mM",114%
same,Relative % viable cells,"[4]; T-ALL 249, dose 0.2 (unit uncertain)",101.0% and 98.6%
same,Relative % viable cells,"[4]; T-ALL 249, dose 1 (unit uncertain)",97.4%
same,Relative % viable cells,"[4]; T-ALL 249, dose 5 (unit uncertain)",98.6% and 97.8%
same,Relative % viable cells,"[4]; T-ALL 249, dose 25 (unit uncertain)",14.0%
same,Relative % viable cells,"[4]; T-ALL 257, dose 0.04 (unit uncertain)",86.6%
same,Relative % viable cells,"[4]; T-ALL 257, dose 0.2 (unit uncertain)",75.9%
same,Relative % viable cells,"[4]; T-ALL 257, dose 1 (unit uncertain)",71.8%
same,Relative % viable cells,"[4]; T-ALL 257, dose 5 (unit uncertain)",49.8%
same,Relative % viable cells,"[4]; T-ALL 273, dose 0.2 (unit uncertain)",96.5% and 91.9%
same,Relative % viable cells,"[4]; T-ALL 273, dose 1 (unit uncertain)",92.9% and 93.1%
same,Relative % viable cells,"[4]; T-ALL 273, dose 5 (unit uncertain)",56.4% and 42.9%
same,Relative % viable cells,"[4]; T-ALL 273, dose 10 (unit uncertain)",20.2% and 18.0%
same,Relative % viable cells,"[4]; T-ALL 273, dose 25 (unit uncertain)",17.9%
same,Relative % viable cells,"[4]; T-ALL 582, dose 0.2 (unit uncertain)",94.2%
same,Relative % viable cells,"[4]; T-ALL 582, dose 1 (unit uncertain)",97.3%
same,Relative % viable cells,"[4]; T-ALL 582, dose 5 (unit uncertain)",75.4% and 57.9%
same,Relative % viable cells,"[4]; T-ALL 582, dose 10 (unit uncertain)",8.4% and 8.6%
same,Relative % viable cells,"[4]; T-ALL 582, dose 25 (unit uncertain)",6.2%
same,Relative % viable cells,"[4]; T-ALL 588, dose 0.04 (unit uncertain)",111.1%
same,Relative % viable cells,"[4]; T-ALL 588, dose 0.2 (unit uncertain)",107.5% and 75.9%
same,Relative % viable cells,"[4]; T-ALL 588, dose 1 (unit uncertain)",100.1%
same,Relative % viable cells,"[4]; T-ALL 588, dose 5 (unit uncertain)",75.8%
same,Relative % viable cells,"[4]; T-ALL 588, dose 25 (unit uncertain)",11.9%
same,Relative % viable cells,"[4]; T-ALL 742, dose 0.2 (unit uncertain)",53.7% and 80.5%
same,Relative % viable cells,"[4]; T-ALL 742, dose 1 (unit uncertain)",25.7%
same,Relative % viable cells,"[4]; T-ALL 742, dose 5 (unit uncertain)",22.9%
same,Relative % viable cells,"[4]; T-ALL 742, dose 25 (unit uncertain)",0.0%
same,killing of LSCs from primary Lmo2^Tg T-ALL,[4]; result in words,dose-dependent killing
